# Laboratory results reported in patent publication US7273847B2, “Peptides with antioxidant and antimicrobial properties” (priority 2000, dated 2007).
# Tests used:
# [1] = test system: P. aeruginosa (PAO1 mutant); assay: Radial diffusion assay; assay type: cell-based
# E. coli strain (E69) = assay: Growth inhibition (radius of clearing) of E. coli clinical isolate with or without OmpA; assay type: cell-based; conditions: for Growth inhibition of ΔOmpA bacteria with plasmid driven OmpA expression: OmpA replaced; for Growth inhibition of OmpA deficient (ΔOmpA) E. coli: judged by the radius of clearing around the well
# Procedure: SP-A has been reported to bind to the outer membrane protein (OmpA) of Hemophilus influenza, a porin that facilitates the uptake of nutrients from the environment. The hypothesis that binding of collectins to OmpA mediates bacterial growth inhibition by SP-A and SP-D was tested. These experiments were performed using a genetically engineered clinical isolate of E. coli that was rendered OmpA deficient (ΔOmpA) by transposon mutagenesis.
# LDL = assay: TBARS assay of copper-induced oxidation of LDL; assay type: biochemical, human; conditions: for I.C.50 (half-maximal point) for inhibition of copper-induced oxidation of LDL / Concentration of complete inhibition of LDL oxidation (to basal levels) / IC50: 10 μM Cu2+, TBARS; for I.C.50 (half-maximal point) for inhibition of copper-induced oxidation of LDL: 4 hours; for IC50: read-out: I.C.50 for inhibition of copper-induced oxidation of LDL; for TBARS LDL Malondialdehyde: mean ± S.E.M., n=3; for Concentration required to provide the same level of antioxidant protection: LDL, level of 500 μg/ml of rat serum
# Procedure: Substrates for lipid oxidation included mixtures of natural and synthetic glycerophospholipids that are found in pulmonary surfactant and human LDL. The surfactant lipid mix, composed of egg phosphatidylcholine, dipalmitoylphosphatidylcholine, cholesterol and 1-oleoyl-2-linoleoyl-sn-glycero-3-phosphocholine (1:1:0.15:0.15, w/w, respectively) (Avanti Polar Lipids) in chloroform, was dried to a film under nitrogen. Following hydration in PBS or 0.15 M NaCl for 30 min, multilamellar vesicles were generated by vigorous vortexing for 5 minutes. LDL were isolated from the plasma of normal blood donors by density gradient ultracentrifugation (density=1.019-1.063 g/ml) as previously described in Qin et al., Am. J. Physiol. 274(5 Pt 2): H1836-1840 (1998), and stored in saline-EDTA. Just prior to use, EDTA was removed by dialysis against PBS, and the concentration of LDL was determined by Lowry assay (in milligrams of LDL-associated protein).
# Stock solutions of 10 mM CuSO4 were freshly prepared daily. Reaction mixtures containing 1 mg/mi surfactant lipids or 150 μg/ml LDL were incubated with 10 μM CuSO4 for 24 hours or 4 hours, respectively, in the presence of putative oxidation inhibitors or controls at 37° C. in a shaking water bath in accordance with the method of Gelvan et al., Biochim. Biophys. Acta 1035(3):353-360 (1990). Control reactions which included LDL only, 10 μM CuSO4 or protein controls of bovine serum albumin (BSA), rat IgG, recombinant MBP, rat serum and human complement C1q were performed concurrently with experimental samples. Thiobarbituric acid-reactive substances (TBARS) were measured using a method adapted from Gelvan et al., Biochim. Biophys. Acta 1035(3):353-360 (1990). Samples and 0-10 μM […] standards were developed by addition of a solution composed of 0.375% thiobarbituric acid, 15% trichloroacetic acid, and 0.25N HCl at a volume ratio of 1:2, sample: developer. Following incubation at 95° C. for 30 minutes and centrifugation at 14,000 rpm for 15 minutes, an aliquot was read at 540 nm in a spectrophotometer. For continuous assessment of lipid oxidation, the accumulation of conjugated dienes during LDL oxidation was monitored spectrophotometrically in accordance with the method of Esterbauer et al., Free Rad. Med. Biol. 13, 341-390 (1992). Mixtures of 150 μg/ml LDL, 10 μM copper, and various amounts of surfactant proteins or control proteins were placed in quartz cuvettes and allowed to oxidize at room temperature over 335 minutes. Conjugated diene formation was assessed by measuring absorbance at 234 nm in a spectrophotometer.
# The data are set forth graphically in FIG. 3. Various concentrations of recombinant wild type SP-A (circle), mutant SP-A containing a deletion of the collagen-like domain (square) and mutant SP-A containing only the neck and C-lectin domain (CLD) (triangle) were incubated with LDL in the presence of 10 μM Cu^2+, and lipid peroxidation was quantified by TBARS assay. Data are means, n=3-4.
# model surfactant lipids = assay: AIBN-initiated lipid peroxidation of model surfactant lipids; assay type: biochemical; conditions: 3 hours incubation, with or without low concentrations of copper; preliminary data
# RAW 264.7 macrophages = assay: Protection from t-BOOH induced cell death (Trypan Blue exclusion); assay type: cell-based, murine; conditions: 40 μM t-BOOH, 24 hrs; for Half maximal concentration for protection from t-BOOH-induced death: Trypan Blue
# Procedure: A murine macrophage cell line (RAW 264.7) was adhered to 24-well plates (2×10^4 cells/well) in Ham's F12 media containing 10% FBS overnight at 37° C. in a 10% CO2 atmosphere. After washing, the cells were exposed to 40 μM tert-butyl hydroperoxide (t-BOOH) in serum free Ham's F12 for 24 hrs in the presence of various concentrations of the surfactant proteins. Viability was assessed for exclusion of the vital dye Trypan Blue.
# Exposure of cultured mammalian cells to tert-butylhydroperoxide (t-BOOH) promotes a variety of toxic events including depletion of glutathione, mitochondrial dysfunction and peroxidation of membrane lipids, as described in Sestili et al., FEBS Lett. 457(1):139-143 (1999). To determine if SP-A and SP-D protect cells from oxidative stress, RAW 264.7 murine macrophages were exposed to 40 μM t-BOOH for 24 hrs in the presence of SP-A or SP-D at concentrations from 0.01 to 50 μg/ml. Cell death was assessed by staining cells with the vital dye Trypan Blue. As depicted by FIG. 5, RAW 264.7 macrophages were incubated with various concentrations of SP-A or SP-D and 40 μM t-BOOH. Cell viability was assessed by counting the percentage of cells that excluded the vital dye Trypan Blue. Data are mean±S.E.M., n=3 for collectins except 50 μg/ml point where n=2.
# E. coli = assay: CFU count over a six hour incubation; assay type: cell-based; conditions: at 1 and 2 hrs; confounded by bacterial aggregation
Molecule,Growth of P. aeruginosa (PAO1 mutant) [1],Growth inhibition of ΔOmpA bacteria with plasmid driven OmpA expression (E. coli strain (E69)),Growth inhibition of ΔOmpA organism with empty vector control (E. coli strain (E69)),Growth inhibition of OmpA deficient (ΔOmpA) E. coli (E. coli strain (E69)),Growth of parental E. coli strain (E69) (E. coli strain (E69)),I.C.50 (half-maximal point) for inhibition of copper-induced oxidation of LDL (LDL) [µg/mL],Concentration of complete inhibition of LDL oxidation (to basal levels) (LDL) [µg/mL],IC50 (LDL) [nM],TBARS LDL Malondialdehyde (LDL; LDL + Cu2+ + 10 μg/ml protein) [µM],Concentration required to provide the same level of antioxidant protection (LDL) [µg/mL],Inhibition of AIBN-initiated LPO (model surfactant lipids),Concentration at which protection reached a plateau (RAW 264.7 macrophages),Half maximal concentration for protection from t-BOOH-induced death (RAW 264.7 macrophages) [µg/mL],Decrease in number of CFUs (E. coli) [%],TBARS LDL Malondialdehyde (LDL; LDL + Cu2+ + 1 μg/ml protein) [µM]
SP-A: Native surfactant protein A isolated from the alveolar wash of silica-pretreated rats,inhibited the growth,attenuated growth inhibition,inhibited to the same extent as the ΔOmpA organism,growth inhibition was increased,inhibited the growth,4.75,10,7.9,0.0 ± 0.0,2.5,"did not inhibit LPO, unless copper was added at low concentrations",approximately 1 μg/ml,0.52,90,–
SP-D: Native surfactant protein D from rat alveolar wash; mouse SP-D was used interchangeably with rat SP-D (protein) AEMKSLSQRSVPNTCTLVMCSPTENGLPGRDGRDGREGPRGEKGDPGLPGPMGLSGLQGPTGPVGPKGENGSAGEPGPKGERGLSGPPGLPGIPGPAGKEGPSGKQGNIGPQGKPGPKGEAGPKGEVGAPGMQGSTGAKGSTGPKGERGAPGVQGAPGNAGAAGPAGPAGPQGAPGSRGPPGLKGDRGVPGDRGIKGESGLPDSAALRQQMEALKGKLQRLEVAFSHYQKAALFPDGRSVGDKIFRTADSEKPFEDAQEMCKQAGGQLASPRSATENAAIQQLITAHNKAAFLSMTDVGTEGKFTYPTGEPLVYSNWAPGEPNNNGGAENCVEIFTNGQWNDKACGEQRLVICEF,–,attenuated growth inhibition,inhibited to the same extent as the ΔOmpA organism,growth inhibition was increased,inhibited the growth,0.14,1,0.3,–,0.05,"did not inhibit LPO, unless copper was added at low concentrations",approximately 1 μg/ml,0.56,–,0.0 ± 0.0
